Experimental data reported in patent publication US20060216299A1, “Cell cycle targets and peptides” (Rigel Pharmaceuticals, Inc., priority 2002, published 2006).
Where no end group is shown, it is not given here.

What was measured:
A549.tTA cells [1] = test: Cell tracker assay (Dil) of GFP fusion peptides; format: cell-based; conditions: for cell death after infection of retrovirus encoding GFP fused peptides: A549.tTA cells, data not shown; for anti-proliferative effect (cell tracker assay, in words): GFP-fused peptides expressed in A549.tTA cells
Experimental: A549.tTA cells were infected with tet-regulatable retroviruses expressing GFP fusion peptides, stained with the cell tracker dye, Dil, and incubated at 37° C. for five days. After the incubation, fluorescent intensity of GFP and Dil was analyzed with MoFlo. A growth ratio was obtained as the ratio of mean Dil fluorescent intensity for the GFP positive population relative to that of the GFP negative population.
Effect of GFP fused peptides and their mutants. GFP fused peptides (#40, #41, #88 and their mutants) expressing A549.tTA cells were stained with Dil and fluorescent intensity of GFP and Dil was examined with MoFlo. A growth ratio was obtained as described above. Mutated residues were underlined. Amino acid sequences of #40, #41, and #88 were aligned with leucine-rich motifs of HIV-1 Rev (amino acid position 75 to 84, gi|16118296|gb|AAL12672.1|), HTLV-1 Rex (amino acid position 82 to 93, gi|7963889|gb|AAF71372.1), Mitogen-activated protein kinase kinase 1, MAPKK, (amino acid position 33 to 43, gi|5579478|ref|NP_002746.1|), Human homologue of mouse double minute 2, Hdm-2, (amino acid position 190 to 200, gi|4505137|ref|NP_002383.1|), and Protein kinase inhibitor, PKI (amino acid position 38 to 48, gi|203271|gb|AAA40867.1|).
Effect of GFP fused peptides and their mutants. A549.tTA cells were infected with retroviruses encoding GFP fusion peptides (#38 and its mutants) and stained with the cell tracker dye, Dil. After the infection, fluorescent intensity of GFP and Dil was examined with MoFlo. A growth ratio was obtained as the ratio of mean Dil fluorescent intensity for the GFP positive population relative to that of the GFP negative population and data are shown as mean±SE in duplicate. Mutated residues or non-identical residues of the C-terminus of cell division cycle 42 isoform 2, CDC42C, (amino acid position 183 to 191, gi|16357472|ref|NP_426359.1|) to #38 were underlined. As controls, entire GFP-C20 library, dsGFP and GFP fused p21C expressing A549.tTA cells were used.

A549.tTA cells [2] = test: Cell cycle analysis (Hoechst 33258) of cells expressing GFP fusion peptides; format: cell-based, human; conditions: GFP low (R1) and GFP high (R2) populations
Experimental: A549.tTA cells expressing GFP fusion peptides were fixed with Cell Fixation/Permeabilization Kits (BD bioscience, Lexington, Ky., U.S.A.) as manufacturer's recommendation and stained with 5 mM Hoechst 33258 (Sigma, St. Louis, Mo., U.S.A.). GFP and Hoechst fluorescent intensity was analyzed with MoFlo.

A549 cells = test: High content imaging of anti-proliferative synthetic K7 peptides (nuclei and apoptotic nuclei, 24 hours); format: cell-based, human
Experimental: A549 cells (American Type Culture Collection (ATCC), Manassas, Va., U.S.A.) were plated at 2000 cells/well in 96 well plates with F12K media supplemented with 10% fetal bovine serum and 1% penicillin/streptomycin and allowed to grow for 24 hours. Peptide dissolved in media was added to the cells to a final concentration ranging from 0.8 to 25 uM in triplicate. Following incubation with peptide for 24 hours, cells were fixed with 3.7% formaldehyde for 30 minutes, rinsed in PBS and stained with DAPI (Molecular Probes) to label nuclear DNA. Digital images were taken of the labeled nuclei in each well using a Zeiss Axiovert microscope, UV filter set and Photometrics camera.

[3] = tested on: A549 lung carcinoma cells; test: Fluorescence microscopy examination of A549 cells exposed to lys7-peptides (nuclei, apoptosis, cell cycle stage, 48 hours); format: cell-based, human; conditions: for number of observed cell nuclei remaining: A549 cells, 48 hours exposure, increasing doses; for cell cycle stage distribution: asynchronously growing A549 cells, 48 hours, remaining cells that have not undergone apoptosis
Experimental: A549 tumor cells (American Type Culture Collection, Fairfax Va.) were plated at 2000 cells per well in 96 well plates with F12k media supplemented with 10% fetal bovine serum and 1% penicillin/streptomycin and allowed to grow for 24 hours. Peptide dissolved in media was added to the cells to a final concentration of 0.8 to 100 uM in triplicate. Following incubation with peptide for 24 or 48 hours, cells were fixed with 3.7% formaldehyde for 30 minutes, rinsed in PBS and stained with DAPI (Molecular Probes, OR) to label nuclear DNA. Digital images of the labeled nuclei in each well were taken using a Zeiss Axiovert microscope, UV filter set and Photometrics camera.

[4] = tested on: A549 cells expressing GFP fusion #38 and #41; test: Displacement of cellular localization of GFP fusion peptides by synthetic analogues; format: cell-based, human; conditions: 100 μM peptide, 5 hours
Experimental: GFP fused #38, #40, and #41 were concentrated at the plasma membrane and granular cytoplasmic structures. […] We examined whether synthetic analogues can displace cellular localization of GFP fusion peptides. A549 cells expressing GFP fusion #38 and #41 were incubated with 100 μM of K7—#41, K7—#41M and K7—#40 for 5 hours and GFP localization was analyzed using a fluorescent microscope.

[5] = Table 2, GFP fusion #38 and mutants in A549.tTA cells, ratio of mean Dil intensity, GFP positive relative to GFP negative, duplicate
[6] = Table 1, GFP fused peptides in A549.tTA cells, ratio of mean Dil fluorescent intensity, GFP positive relative to GFP negative population, five days

Substance	Growth Ratio (mean ± SE) (A549.tTA cells [1]; [5])	anti-proliferative effect (cell tracker assay, in words) (A549.tTA cells [1])	Growth Ratio (mean ± SE) (A549.tTA cells [1]; [6])	other results
TSGLLKLVQAKRKACIS (not fully specified (N-terminus)) [#38(C14A)]	1.1 ± 0.1	–	–	–
TSGLLKLVQAKRKCCIS ({GFP}-TSGLLKLVQAKRKCCIS; not fully specified; cysteine pairing not given here) [#38, 17mer anti-proliferative peptide with CAAX box motif, tested fused to the C-terminus of GFP]	2.5 ± 0.2	significant inhibitors of cell proliferation	–	cell cycle profile (DNA content, Hoechst 33258) (A549.tTA cells [2]): arrested in G0/G1; cell death after infection of retrovirus encoding GFP fused peptides (A549.tTA cells [1]): did not observe massive cell death
KRRQTSMTDFYHSKRRLIFSKRKP [p21C, reference compound]	4.5 ± 0.8	significant antiproliferative effect	4.5 ± 0.8	–
RWDPTRLLRFRFARALVRRSRPVRP (also: GFP fusion) [#40(L13A/M15A)]	–	–	1.6 ± 0.2	–
GRGCIFRWRRGLRGMARAFK (also: GFP fusion) [#41(M16A/L18A)]	–	reduced the anti-proliferative effect	1.5	–
TSGALKLVQAKRKCCIS (cysteine pairing not given here; also: GFP fusion) [#38(L4A)]	2.2 ± 0.1	–	–	–
RLRRICSGILLIRRILGIFVRPVRP [#88]	–	significant inhibitors of cell proliferation	2.7 ± 0.4	cell cycle profile (DNA content, Hoechst 33258) (A549.tTA cells [2]): no significant change in the DNA content profile; cell death after infection of retrovirus encoding GFP fused peptides (A549.tTA cells [1]): did not observe massive cell death
RWDPTRLLRFRFLRMLVRRSRPVRP (also: GFP fusion) [#40, anti-proliferative peptide tested as GFP fusion]	–	significant inhibitors of cell proliferation	2.4 ± 0.3	cell cycle profile (DNA content, Hoechst 33258) (A549.tTA cells [2]): no significant change in the DNA content profile; cell death after infection of retrovirus encoding GFP fused peptides (A549.tTA cells [1]): did not observe massive cell death
TSGLLKLAQAKRKCCIS (cysteine pairing not given here; also: GFP fusion) [#38(V8A)]	2.7 ± 0.2	–	–	–
TSALLKLVQAKRKCCIS (cysteine pairing not given here; also: GFP fusion) [#38(G3A)]	2.7 ± 0.2	–	–	–
TSGLLKAVQAKRKCCIS (cysteine pairing not given here; also: GFP fusion) [#38(L7A)]	2.0 ± 0.2	–	–	–
RWDPTRLLRARFARALVRRSRPVRP (also: GFP fusion) [#40(F10A/L13A/M15A)]	–	–	1.3 ± 0.1	–
RLRRICSGILLIRRIAGAFVRPVRP (also: GFP fusion) [#88(L16A/L18A)]	–	–	1.1	–
GRGCIFRWRRGARGMARAFK (also: GFP fusion) [#41(L12A/M16A/L18A)]	–	no significant localization or anti-proliferative effect	1.1 ± 0.1	–
AALEPPETQPKRKCCIF [CDC42C, C-terminal 17 residues of cell division cycle 42 isoform 2, expressed as GFP-fused peptide, reference compound]	1.3 ± 0.1	no significant anti-proliferative activity	–	–
synthetic #40 fused with seven Lys (K7) via a linker (GGEEAAKA) at the N-terminus [K7—#40]	–	–	–	apoptotic nuclei (A549 cells): increase in apoptotic nuclei; number of observed cell nuclei remaining [3]: ca. 10 % of original values; cell cycle stage distribution [3]: depletion of G1 cells, a complete loss of S and G2 cells at 100 mM levels, and an increase in M phase cells; change of cellular localization of GFP fusion #41 [4]: these changes were not seen
TSGLAKLVQAKRKCCIS (cysteine pairing not given here; also: GFP fusion) [#38(L5A)]	1.9 ± 0.2	–	–	–
synthetic #41 fused with seven Lys (K7) via a linker (GGEEAAKA) at the N-terminus [K7—#41]	–	–	–	apoptotic nuclei (A549 cells): increase in apoptotic nuclei; number of observed cell nuclei remaining [3]: ca. 10 % of original values; cell cycle stage distribution [3]: G1 phase cells were depleted and the percent of M phase cells increased significantly; change of cellular localization of GFP fusion #41 [4]: punctuated localization of GFP and loss of GFP localization in the cell-cell contact area
GRGCIFRWRRGLRGMMRAFK (also: GFP fusion) [#41(L18A)]	–	partial loss of the anti-proliferative effect	1.7	–
TAGLLKLVQAKRKCCIS (cysteine pairing not given here; also: GFP fusion) [#38(S2A)]	5.5 ± 0.8	enhanced	–	–
ASGLLKLVQAKRKCCIS (cysteine pairing not given here; also: GFP fusion) [#38(T1A)]	3.5 ± 0.2	–	–	–
RWDPTRLLRFRFLRALVRRSRPVRP (also: GFP fusion) [#40(M15A)]	–	–	2.0	–
QAKRKCCIS ({GFP}-QAKRKCCIS; cysteine pairing not given here; also: fused to GFP C-terminus) [#38NΔ(1-8)]	1.5 ± 0.1	–	–	–
RLRRICSGILLARRIAGAFVRPVRP (also: GFP fusion) [#88(I12AILI6A/118A)]	–	–	1.1 ± 0.1	–
RLRRICSGILLIRRILGAFVRPVRP (also: GFP fusion) [#88(118A)]	–	–	1.5	–
GRGCIFRWRRGLRGMMRLFK (also: GFP fusion) [#41, anti-proliferative peptide tested as GFP fusion]	–	significant inhibitors of cell proliferation	2.7 ± 0.2	cell cycle profile (DNA content, Hoechst 33258) (A549.tTA cells [2]): arrested in G0/G1; cell death after infection of retrovirus encoding GFP fused peptides (A549.tTA cells [1]): did not observe massive cell death
TSGLLALVQAKRKCCIS (cysteine pairing not given here; also: GFP fusion) [#38(K6A)]	1.4 ± 0.1	reduced anti-proliferative effect	–	–
